Data reported in BindingDB's records for doi:10.1007/s10822-022-00478-x (Roche Innovation Center Basel, F. Hoffmann-La Roche Ltd., 2022).

Biological target: cAMP and cAMP-inhibited cGMP 3',5'-cyclic phosphodiesterase 10A (Homo sapiens, UniProt Q9Y233)
Assay: PDE10A assay
Outline: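 Human PDE10A (2 ng/well) preincubated 15 min RT with compound in HEPES pH 7.5, 10 mM MgCl2, BSA, then reacted 15 min with 50 nM [3H]cGMP/cGMP substrate. Stopped with Y-Si SPA beads; bound radioactivity counted, IC50 from four-parameter logistic, pIC50 = −log10(IC50).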

Chain of cAMP and cAMP-inhibited cGMP 3',5'-cyclic phosphodiesterase 10A (Q9Y233 as listed by the source): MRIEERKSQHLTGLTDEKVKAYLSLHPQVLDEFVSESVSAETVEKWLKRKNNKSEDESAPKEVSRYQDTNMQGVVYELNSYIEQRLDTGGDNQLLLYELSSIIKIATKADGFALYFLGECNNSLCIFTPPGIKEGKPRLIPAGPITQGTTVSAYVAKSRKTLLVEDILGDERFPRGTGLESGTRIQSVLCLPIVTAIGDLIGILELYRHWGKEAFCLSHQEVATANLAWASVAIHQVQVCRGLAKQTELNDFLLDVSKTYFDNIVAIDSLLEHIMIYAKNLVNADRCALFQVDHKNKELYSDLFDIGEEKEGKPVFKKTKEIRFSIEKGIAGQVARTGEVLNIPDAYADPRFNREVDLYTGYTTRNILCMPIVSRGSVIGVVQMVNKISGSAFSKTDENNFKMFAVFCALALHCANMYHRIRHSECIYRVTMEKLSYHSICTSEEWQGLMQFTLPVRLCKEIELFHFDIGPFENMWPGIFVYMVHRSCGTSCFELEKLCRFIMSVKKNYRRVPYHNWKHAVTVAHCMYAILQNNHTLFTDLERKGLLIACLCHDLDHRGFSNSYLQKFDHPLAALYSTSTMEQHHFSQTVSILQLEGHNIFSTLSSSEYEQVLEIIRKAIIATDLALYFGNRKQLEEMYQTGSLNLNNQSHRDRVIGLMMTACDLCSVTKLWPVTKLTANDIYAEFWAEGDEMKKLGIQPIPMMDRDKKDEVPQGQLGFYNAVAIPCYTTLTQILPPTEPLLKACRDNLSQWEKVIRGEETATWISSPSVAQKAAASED

| IC50 [nM] | SMILES |
| --- | --- |
| 19 | CNC(=O)c1c(NC(=O)c2nc(C3CC3)cnc2Nc2cncnc2)cnn1CCC(F)(F)F [US8703768, 173] |
| 0.41 | CCc1ccc(NC(=O)c2nc(C3CC3)cnc2Nc2cncnc2)c(C(=O)NCC(C)(C)O)n1 [US8703768, 181] |
| 1.15 | CNC(=O)c1cc(C(C)C)ccc1NC(=O)c1nc(C2CC2)cnc1Nc1cncnc1 [US8703768, 208] |
| 0.77 | CNC(=O)c1cc(OCCO)ccc1NC(=O)c1nc(C2CC2)cnc1Nc1cncnc1 [US8703768, 216] |
| 0.31 | CC(C)(CO)NC(=O)c1ncccc1NC(=O)c1nc(C2CC2)cnc1Nc1cncnc1 [US8703768, 273] |
| 0.38 | CC1(NC(=O)c2ncccc2NC(=O)c2nc(C3CC3)cnc2Nc2cncnc2)COC1 [US8703768, 275] |
| 13 | Cc1ccc(NC(=O)c2nc(C3CC3)cnc2Nc2cncnc2)c(C(=O)N(C)C)n1 [US8703768, 276] |
| 0.64 | Cc1ncc(NC(=O)c2nc(C3CC3)cnc2Nc2cncnc2)c(C(=O)NCC(C)(C)O)n1 [US8703768, 281] |
| 28 | O=C(Nc1cc(F)c(F)cc1C(=O)N1CCC1)c1nc(C2CC2)cnc1Nc1cncnc1 [US8703768, 291] |
| 0.68 | CNC(=O)c1ccc(F)cc1NC(=O)c1nc(C2CC2)cnc1Nc1cncnc1 [US8703768, 292] |
| 0.32 | CNC(=O)c1c(F)cc(F)cc1NC(=O)c1nc(C2CC2)cnc1Nc1cncnc1 [US8703768, 299] |
| 1.67 | O=C(Nc1cccc(F)c1C(=O)N1CCC1)c1nc(C2CC2)cnc1Nc1cncnc1 [US8703768, 309] |
| 0.95 | CNC(=O)c1cc(F)ccc1NC(=O)c1nc(C2CC2)cnc1Nc1cncnc1 [US8703768, 312] |
| 0.39 | CNC(=O)c1cc(CCC(=O)O)ccc1NC(=O)c1nc(C2CC2)cnc1Nc1cncnc1 [US8703768, 328] |
| 0.64 | Cc1cc(C#Cc2nc(N3CCCC3)nn2C)nn2c(C)c(C(F)(F)F)nc12 [US9617271, 54] |
| 12 | Cn1cc(-c2ccccc2)nc1C#Cc1ccc2nc(C(F)(F)F)cn2n1 [US10399985, Example 8] |

More lines, now with the values behind:

| SMILES | IC50 [nM] |
| --- | --- |
| CCN(C)C(=O)c1ncccc1NC(=O)c1nc(C2CC2)cnc1Nc1cncnc1 [US8703768, 199] | 5.93 |
| CCN(C)C(=O)c1c(NC(=O)c2nc(C3CC3)cnc2Nc2cncnc2)cnn1C [US8703768, 203] | 25 |
| COCc1ccc(NC(=O)c2nc(C3CC3)cnc2Nc2cncnc2)c(C(=O)NCC(C)(C)O)n1 [US8703768, 210] | 0.48 |
| COCCOc1ccc(NC(=O)c2nc(C3CC3)cnc2Nc2cncnc2)c(C(=O)NCC(C)(C)O)c1 [US8703768, 213] | 0.74 |
| CC(C)(O)CNC(=O)c1cc(OCCO)ccc1NC(=O)c1nc(C2CC2)cnc1Nc1cncnc1 [US8703768, 215] | 0.49 |
| CNC(=O)c1cc(OC)ccc1NC(=O)c1nc(C2CC2)cnc1Nc1cncnc1 [US8703768, 225] | 0.48 |
| CNC(=O)c1c(NC(=O)c2nc(OC)cnc2Nc2cncnc2)cnn1C [US8703768, 258] | 141 |
| CC(C)(O)CNC(=O)c1cc(C#N)ccc1NC(=O)c1nc(C2CC2)cnc1Nc1cncnc1 [US8703768, 262] | 0.71 |
| O=C(NCCO)c1ncccc1NC(=O)c1nc(C2CC2)cnc1Nc1cncnc1 [US8703768, 271] | 0.36 |
| CNC(=O)c1cc(NC(C)=O)ccc1NC(=O)c1nc(C2CC2)cnc1Nc1cncnc1 [US8703768, 274] | 0.38 |
| CNC(=O)c1cc(F)c(F)cc1NC(=O)c1nc(C2CC2)cnc1Nc1cncnc1 [US8703768, 288] | 0.74 |
| CN(C)C(=O)c1c(F)cccc1NC(=O)c1nc(C2CC2)cnc1Nc1cncnc1 [US8703768, 308] | 0.92 |
| CCN(C)c1cnc(Nc2cncnc2)c(C(=O)Nc2cnn(C)c2C(=O)NC)n1 [US8703768, 311] | 19 |
| CN(C)CCNC(=O)c1c(NC(=O)c2nc(C3CC3)cnc2Nc2cncnc2)cnn1C [US8703768, 313] | 51 |
| CCOC(=O)CCc1ccc(NC(=O)c2nc(C3CC3)cnc2Nc2cncnc2)c(C(=O)NC)c1 [US8703768, 321] | 0.59 |
| Cn1ncc(NC(=O)c2nc(C3CC3)cnc2Nc2cncnc2)c1C(=O)N1CCCO1 [US8703768, 335] | 0.75 |
| Cc1nn2ccc(CCc3nc(N4CCCC4)nn3C)nc2c1C [US9617271, 53] | 17 |
| Cc1cn2nc(C#Cc3nc(N4CCCC4)nn3C)ccc2n1 [US9617271, 67] | 9.21 |
| Cn1cc(-c2ccccc2)nc1CCc1cnc2ccccc2n1 [US9834564, Compound 20] | 21 |
| Cc1nc2c(C)c(C)c(CCc3nc(-c4ccccc4)cn3C)nn2c1C [US10399985, Example 14] | 2.4 |
| Cc1nc2ccc(CCc3nc(-c4ccccc4)cn3C)nn2c1CO [US10399985, Example 15] | 21 |
| Cc1nn2ccc(CCc3nc(-c4ccccc4)cn3C)nc2c1C [US10399985, Example 16] | 4.89 |
| Cc1c(C(F)F)nc2ccc(CCc3nc(-c4ccccc4)cn3C)nn12 [US10399985, Example 19] | 5.6 |
| Cc1c(C(F)(F)F)nc2ccc(OCc3nc(-c4ccccc4)cn3C)nn12 [US10399985, Example 36] | 34 |
